Here are results for 23 molecules from ChEMBL document CHEMBL4270582, “Diterpenoid lead stevioside and its hydrolysis products steviol and isosteviol: Biological activity and structural modification” (Eur J Med Chem, 2018).

Values after ≈ are worked out from the molar mass of the structure shown.

The test system of test [1] is Staphylococcus aureus. Put plainly: Antibacterial activity against Staphylococcus aureus 209p by serial dilution method. In kind it is functional.
Test [2] has as its system Candida albicans. Put plainly: Antifungal activity against Candida albicans 855-653 by serial dilution method. In kind it is functional.
Test [3] has as its system B16-F10. Briefly: Antiproliferative activity against mouse B16F10 cells. It counts as functional, cell-based.
Test [4] deals with HCT-116. Briefly: Antiproliferative activity against human HCT116 cells after 72 hrs by MTT assay. Conditions: HCT-116, 72 h. In kind it is functional, cell-based. In general terms: Tetrazolium assays rely on reduction of a dye to a coloured formazan, in cell work by metabolically active cells.
The subject of test [5] is Mycobacterium tuberculosis. Put plainly: Antimycobacterial activity against Mycobacterium tuberculosis H37Rv after 11 days by serial dilution method. It counts as functional. The conditions noted are these: 264 h.
Test [6] relates to Mycobacterium tuberculosis. Briefly: Antimycobacterial activity against Mycobacterium tuberculosis H37Rv after 10 to 12 days by vertical diffusion method. It counts as functional.
Test [7] has as its system Mycobacterium avium. Put plainly: Antimycobacterial activity against Mycobacterium avium after 10 to 12 days by vertical diffusion method. In kind it is functional.
Test [8] has as its system Mycolicibacter terrae. Put plainly: Antimycobacterial activity against Mycobacterium terrae after 10 to 12 days by vertical diffusion method. In kind it is functional.
The subject of test [9] is A549. Briefly: Antiproliferative activity against human A549 cells after 48 hrs by MTT assay. It counts as functional, cell-based. The conditions noted are these: A549, 48 h.
The test system of test [10] is ASPC1. Briefly: Antiproliferative activity against human AsPC1 cells after 48 hrs by MTT assay. In kind it is functional, cell-based. The conditions noted are these: ASPC1, 48 h.
Test [11] concerns HCT-116. Put plainly: Antiproliferative activity against human HCT116 cells after 48 hrs by MTT assay. In kind it is functional, cell-based. Conditions: HCT-116, 48 h.
In test [12] the test system is HCT-116. Briefly: Antiproliferative activity against human HCT116 cells by MTT assay. In kind it is functional, cell-based.
Test [13] has as its system Huh-7. Put plainly: Antiproliferative activity against human HuH7 cells by MTT assay. In kind it is functional, cell-based.
Test [14] has as its system HepG2. Put plainly: Antiproliferative activity against human HepG2 cells by MTT assay. It counts as functional, cell-based.
The test system of test [15] is SW-620. Briefly: Antiproliferative activity against human SW620 cells by MTT assay. It counts as functional, cell-based.
The subject of test [16] is Bacillus subtilis. Briefly: Antibacterial activity against Bacillus subtilis CMCC (B) 63501 after 6 hrs by two fold serial dilution method. In kind it is functional. Conditions: CMCC (B) 63501, 6 h.
Test [17] concerns HL-60. Put plainly: Antiproliferative activity against human HL60 cells after 24 hrs by MTT assay. The conditions noted are these: HL-60, 24 h. In kind it is functional, cell-based.
Test [18] has as its system HepG2. Briefly: Antiproliferative activity against human HepG2 cells after 24 hrs by MTT assay. In kind it is functional, cell-based. The conditions noted are these: HepG2, 24 h.
Test [19] concerns NCI-H460. Briefly: Antiproliferative activity against human H460 cells after 24 hrs by MTT assay. The conditions noted are these: NCI-H460, 24 h. In kind it is functional, cell-based.
Test [20] deals with MRC5. Briefly: Antiproliferative activity against human MRC5 cells after 24 hrs by MTT assay. In kind it is cell-based. Conditions: MRC5, 24 h.
The subject of test [21] is Mycobacterium tuberculosis. Briefly: Antimycobacterial activity against Mycobacterium tuberculosis H37Rv after 10 to 12 days by double serial dilution method. It counts as functional.
Test [22] has as its system HL-60. Briefly: Antiproliferative activity against human HL60 cells after 48 hrs by MTT assay. It counts as functional, cell-based. The conditions noted are these: HL-60, 48 h.
The test system of test [23] is AZ-521 cell line. Briefly: Antiproliferative activity against human AZ-521 cells after 48 hrs by MTT assay. In kind it is functional, cell-based. The conditions noted are these: AZ-521, 48 h.
For test [24], the system named is SK-BR-3. Put plainly: Antiproliferative activity against human SKBR3 cells after 48 hrs by MTT assay. The conditions noted are these: SK-BR-3, 48 h. In kind it is functional, cell-based.
Test [25] relates to HepG2. Briefly: Antiproliferative activity against human HepG2 cells. It counts as functional, cell-based.
Test [26] relates to HeLa. Briefly: Antiproliferative activity against human HeLa cells after 48 hrs by MTT assay. It counts as functional, cell-based.
A short description of test [27]: Inhibition of calf thymus DNA polymerase alpha using poly(dA)template/oligo(dT) (12 to 18 residues) primer and dTTP as substrate after 10 mins. On the set-up: species or system Bos taurus.
The test system of test [28] is MCF7. Briefly: Antiproliferative activity against human MCF7 cells. It counts as functional, cell-based.
The subject of test [29] is MCF7. Briefly: Antiproliferative activity against human MCF7 cells after 48 hrs by SRB assay. It counts as functional, cell-based. The conditions noted are these: MCF7, 48 h. On the technique in general: The SRB assay estimates cell density from bound dye.
Test [30] concerns Syrian golden hamster. Briefly: Induction of insulin sensitivity in Syrian golden hamster assessed as uplift of glucose uptake in normal condition relative to control. In kind it is functional, Mesocricetus auratus.
For test [31], the system named is Syrian golden hamster. Briefly: Induction of insulin sensitivity in Syrian golden hamster assessed as uplift of glucose uptake in insulin-resistance condition relative to control. In kind it is functional, Mesocricetus auratus.
Test [32] deals with Jejunum. Briefly: Downregulation of glucose uptake in Syrian golden hamster jejunum at 1 mM after 60 mins relative to control. It counts as functional, Mesocricetus auratus.

For the molecule `C[C@@]12CC[C@@H]3[C@@](CC[C@H]4[C@@]3(C)CCC[C@@]4(C)C(=O)OCC[N+](C)(C)Cc3ccccc3)(CC1=O)C2.[Br-]`, the MIC in [1] and in test [2] was 31.2 µg/mL each time.

In turn, `C=C1C(=O)[C@@]2(C)CC[C@@H]3[C@]1(CC[C@H]1[C@@]3(C)CCC[C@@]1(C)C(=O)NCC(=O)OCCCOc1no[n+]([O-])c1S(=O)(=O)c1ccccc1)C2` displayed an IC50 in test [3] of 0.02 µM.

For `CCOC(=O)[C@]1(C)CCC[C@@]2(C)[C@@H]3CC[C@@]4(C)C[C@]3(CC[C@@H]21)[C@H](Cn1cc(COc2ccccc2C=O)nn1)[C@H]4O`, the midpoint of inhibition in test [4], the IC50, lay at 2.98 µM.

In test [5], `COC(=O)[C@]1(C)CCC[C@@]2(C)[C@@H]3CC[C@@]4(C)C[C@]3(CC[C@@H]21)C/C4=N\NC(=O)c1ccccn1` came in with an MIC of 10 µg/mL (≈ 22.1 µM).

Take `COC(=O)[C@]1(C)CCC[C@@]2(C)[C@@H]3CC[C@@]4(C)C[C@]3(CC[C@@H]21)C/C4=N\NC(=O)c1cccnc1`: the MIC in test [5] was 10 µg/mL (≈ 22.1 µM).

With `C[C@@]12CC[C@@H]3[C@@](CC[C@H]4[C@@]3(C)CCC[C@@]4(C)C(=O)O[C@@H]3O[C@H](C(=O)NN)[C@@H](O)[C@H](O)[C@H]3O)(C/C1=N\N)C2`, the MIC in test [6] was 0.7 µg/mL (≈ 1.34 µM); in test [7], 0.7 µg/mL (≈ 1.34 µM); in [8] it was 0.35 µg/mL (≈ 0.67 µM).

On to `C[C@@]12CC[C@@H]3[C@@](CC[C@H]4[C@@]3(C)CCC[C@@]4(C)C(=O)OCc3cn(CCCc4ccccc4)nn3)(CC1=O)C2`, for which the values for the half-maximal inhibitory concentration (IC50) in test [9], in test [10] and in [11] were 9.95 µM, 4.79 µM and 6.6 µM, respectively.

With `CCOC(=O)[C@]1(C)CCC[C@@]2(C)[C@@H]3CC[C@@]4(C)C[C@]3(CC[C@@H]21)C/C4=N\OC(=O)CCC(=O)OCCOc1no[n+]([O-])c1S(=O)(=O)c1ccccc1`, the IC50 in test [12] came out at 0.48 µM; in test [13] it was 2.86 µM; in test [14] it was 2.95 µM; in test [15], 3.02 µM.

As to `CCOC(=O)[C@]1(C)CCC[C@@]2(C)[C@@H]3CC[C@@]4(C)C[C@]3(CC[C@@H]21)C/C4=N\OC(=O)CCC(=O)OC(C)CCOc1no[n+]([O-])c1S(=O)(=O)c1ccccc1` (stereo partly specified), the IC50 turned out to be 0.94 µM in test [12], 1.73 µM in test [13], 2.42 µM in test [14] and 1.15 µM in test [15].

For the molecule `C=C[C@]12CC[C@H]3[C@@](C)(CCC[C@@]3(C)C(=O)OCC)[C@@H]1CC[C@](C)(/C=N/O)C2`, the minimal inhibitory concentration (MIC) in test [16] is 1.56 µg/mL (≈ 4.15 µM).

On to `C=C1C[C@@]23CC[C@H]4[C@@](C)(CCC[C@@]4(C)C(=O)NCCNC(=O)[C@]4(C)CCC[C@@]5(C)[C@@H]6CC[C@]7(O)C[C@@]6(CC[C@@H]54)CC7=C)[C@@H]2CC[C@]1(O)C3`, for which the IC50 in test [17] was found to be 4.3 µM; in test [18], 17.9 µM; in test [19] it was 10.7 µM; in test [20] it was 17 µM.

Regarding `C[C@@]12CC[C@@H]3[C@@](CC[C@H]4[C@@]3(C)CCC[C@@]4(C)C(=O)O)(C[C@H]1CC(=O)CCCCCCCCC(=O)C[C@@H]1C[C@]34CC[C@H]5[C@@H](CCC[C@H]5C(=O)O)[C@@H]3CC[C@@]1(C)C4)C2`, in test [21], the MIC came out at 12.5 µg/mL (≈ 16.1 µM).

Molecule `COP(=O)(OC)C(C)(C)C/C(C)=N/N=C1\C[C@]23CC[C@H]4[C@@](C)(CCC[C@@]4(C)C(=O)N/N=C(\C)CC(C)(C)P(=O)(OC)OC)[C@@H]2CC[C@@]1(C)C3` had an MIC in test [5] of 5 µg/mL (≈ 6.88 µM).

As for `C=C1C[C@@]23CC[C@H]4[C@@H](CCC[C@@]4(C)COC(=O)/C=C/C(F)(F)F)[C@@H]2CC[C@]1(O)C3`, the 50% inhibitory concentration (IC50) was found to be 2.9 µM in test [22], 4.1 µM in test [9], 1.7 µM in [23] and 1.2 µM in test [24].

`CCCCCCCC(=O)CO[C@]1(C)CCC[C@@]2(C)[C@@H]3CC[C@@]4(C)C[C@]3(CC[C@@H]21)CC4=O` gave a half-maximal inhibitory concentration (IC50) in test [25] of 2 µM.

On to `C[C@@]12CC[C@@H]3[C@@](CC[C@H]4[C@@]3(C)CCC[C@@]4(C)C(=O)NNC(=O)CCCCC(=O)NNC(=O)[C@]3(C)CCC[C@H]4[C@@H]5CC[C@@]6(C)C[C@]5(CC[C@@H]43)CC6=O)(CC1=O)C2`, for which 5 µg/mL (≈ 6.57 µM) was the least that counted as inhibitory in test [5] (MIC).

`C[C@@]12CC[C@@H]3[C@@](CC[C@H]4[C@@]3(C)CCC[C@@]4(C)C(=O)OCc3cn(-c4ccccc4)nn3)(CC1=O)C2`: the IC50 in test [26] was found to be 5.83 µM.

In the case of `C[C@@]12CC[C@@H]3[C@@](CC[C@H]4[C@@]3(C)CCC[C@@]4(C)C(=O)NCCNC(=O)[C@]3(C)CCC[C@@]4(C)[C@@H]5CC[C@@]6(C)C[C@]5(CC[C@@H]43)CC6=O)(CC1=O)C2`, the IC50 in test [17] is 4.8 µM; in test [18] it was 17.4 µM; in test [19] it was 14 µM; in [20], 22.6 µM.

In the case of `NNC(=O)c1ccncc1` [ISONIAZID], in test [5], the minimal inhibitory concentration (MIC) was found to be 0.5 µg/mL (≈ 3.65 µM).

Consider `C[C@@]12CC[C@@H]3[C@@](CC[C@H]4[C@@]3(C)CCC[C@@]4(C)C(=O)O)(CC1=O)C2` [ISOSTEVIOL], for which the values for the concentration for half-maximal inhibition (IC50) in [27] and in [28] were 64 µM and 2.18 µg/mL (≈ 6.85 µM), respectively.

Regarding `C=C1C[C@@]23CC[C@H]4[C@@](C)(CCC[C@@]4(C)C(=O)O)[C@@H]2CC[C@]1(O)C3` [STEVIOL], in test [29], half-maximal inhibition (IC50) was put at 185 µM.

With `C=C1C[C@@]23CC[C@H]4[C@@](C)(CCC[C@@]4(C)C(=O)O[C@@H]4O[C@H](CO)[C@@H](O)[C@H](O)[C@H]4O)[C@@H]2CC[C@]1(O[C@@H]1O[C@H](CO)[C@@H](O)[C@H](O)[C@H]1O[C@@H]1O[C@H](CO)[C@@H](O)[C@H](O)[C@H]1O)C3` [STEVIOSIDE], the “fold change (FC)” value in test [30] was found to be 2.1; in test [31], 4.4. In addition, the Activity in test [32] was found to be 43%.

Take `CCN(CC)CCNC(=O)c1c(C)[nH]c(/C=C2\C(=O)Nc3ccc(F)cc32)c1C` [SUNITINIB]: half-maximal inhibition in [14] (IC50) required 7.78 µM.

A word on the MIC: it is the lowest concentration found to suppress growth. For orientation: IC50 means the point on the concentration scale where inhibition reaches its midpoint.
